In patent US20120157482A1, “COMPOUNDS AND METHODS” (priority 2009, published 2012):
Where a name gives a salt, the structure may show the parent alone.

Target: T1, His-MBP-TEV-Full length human TNNI3K (hTNNI3K) (Homo sapiens, UniProt Q59H18)
T1 construct: His-MBP-TEV-Full length human TNNI3K (hTNNI3K); His (N); TEV cleavage site (N); made in house; host or cells: baculovirus system (printed 'Baculokinase system')
T1 sequence (Q59H18 1-835): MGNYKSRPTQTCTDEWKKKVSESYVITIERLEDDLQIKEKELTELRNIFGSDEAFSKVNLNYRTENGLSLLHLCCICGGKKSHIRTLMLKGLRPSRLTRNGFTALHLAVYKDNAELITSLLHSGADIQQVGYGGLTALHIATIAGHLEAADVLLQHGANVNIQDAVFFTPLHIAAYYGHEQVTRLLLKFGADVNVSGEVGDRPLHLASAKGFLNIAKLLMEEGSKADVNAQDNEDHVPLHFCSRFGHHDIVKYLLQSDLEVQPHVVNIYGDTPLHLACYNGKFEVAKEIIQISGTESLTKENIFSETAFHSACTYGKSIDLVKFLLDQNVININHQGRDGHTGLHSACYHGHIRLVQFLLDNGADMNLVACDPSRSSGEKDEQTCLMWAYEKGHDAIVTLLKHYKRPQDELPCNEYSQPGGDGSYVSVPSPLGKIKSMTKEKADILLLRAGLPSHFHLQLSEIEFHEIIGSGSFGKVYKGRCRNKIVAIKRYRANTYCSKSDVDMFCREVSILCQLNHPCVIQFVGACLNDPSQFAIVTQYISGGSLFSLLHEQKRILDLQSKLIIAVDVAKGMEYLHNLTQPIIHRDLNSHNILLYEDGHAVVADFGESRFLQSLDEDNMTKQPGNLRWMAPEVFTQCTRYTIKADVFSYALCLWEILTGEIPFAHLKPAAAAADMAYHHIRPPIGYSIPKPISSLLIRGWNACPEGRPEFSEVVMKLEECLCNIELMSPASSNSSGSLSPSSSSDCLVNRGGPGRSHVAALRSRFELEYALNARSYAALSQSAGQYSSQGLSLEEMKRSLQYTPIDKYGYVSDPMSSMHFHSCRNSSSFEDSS
Assay: Fluorescent polarization assay of compound inhibition on hTNNI3K ATP binding (Biological Assay Method I)
Conditions: displacement of fluorescent ligand, mean of a minimum of 2 experiments, read-out: mean pXC50 (converted)
Text: Materials: His-MBP-TEV-Full length human TNNI3K (hTNNI3K) was expressed in Baculokinase system and purified from amylase affinity column followed by Superdex200. The fluorescent ligand 5-({[2-({[3-({4-[(5-hydroxy-2-methylphenyl)amino]-2-pyrimidinyl}amino)phenyl]carbonyl}amino)ethyl]amino}carbonyl)-2-(6-hydroxy-3-oxo-3H-xanthen-9-yl)benzoic acid was used. The other buffer components, including MgCl2 (Catalog Number M1028), Bis-Tris (Catalog Number B7535), DTT (Catalog Number D9779) and Chaps (Catalog Number C3023) were purchased from Sigma-Aldrich.
A fluorescent polarization assay was used to determine does response of compound inhibition on hTNNI3K ATP binding. […]
Fifty (50) nL of inhibitors in DMSO (or DMSO controls) were stamped into a 384-well low volume Greiner black plate, followed by addition of 5 μL of Solution 1 to column 18 and 5 μL Solution 2 to columns 1-17 and 19-24 of the plate. […] After that, the fluorescent polarization was measured on Analyst (ex/em: 485/530 nm, Dichroic: 505). […]

SMILES	IC50
CNc1cc(Oc2c(C)cc(NC(=O)Nc3cccc(C(F)(F)F)c3)cc2C)ncn1 [Example 5, N-(3,5-dimethyl-4-{[6-(methylamino)-4-pyrimidinyl]oxy}phenyl)-N′-[3-(trifluoromethyl)phenyl]urea trifluoroacetate]	25.1 nM
CNc1cc(Oc2ccc(NC(=O)Nc3cccc(C(F)(F)F)c3)cc2F)ncn1 [Example 11, N-(3-fluoro-4-{[6-(methylamino)-4-pyrimidinyl]oxy}phenyl)-N′-[3-(trifluoromethyl)phenyl]urea trifluoroacetate]	25.1 nM
